# Laboratory results taken from ChEMBL document CHEMBL3808343, “Glutaminase GLS1 Inhibitors as Potential Cancer Treatment” (ACS Med Chem Lett, 2016).
# Tests used:
# NCI-H1703 = assay: Antiproliferative activity against human NCI-H1703 cells assessed as reduction in cell growth after 5 days by Sytox Green dye based assay; type: functional; details: NCI-H1703, 120 h
# [1] = target: T1, Glutaminase kidney isoform, mitochondrial (Homo sapiens, UniProt O94925); assay: Inhibition of GLS1 in human PC3 cells assessed as cellular glutamate depletion levels after 6 hrs by Glutamate Oxidase/ AmplexRed coupled assay; type: cell-based, PC-3
# T1 sequence (O94925 whole entry): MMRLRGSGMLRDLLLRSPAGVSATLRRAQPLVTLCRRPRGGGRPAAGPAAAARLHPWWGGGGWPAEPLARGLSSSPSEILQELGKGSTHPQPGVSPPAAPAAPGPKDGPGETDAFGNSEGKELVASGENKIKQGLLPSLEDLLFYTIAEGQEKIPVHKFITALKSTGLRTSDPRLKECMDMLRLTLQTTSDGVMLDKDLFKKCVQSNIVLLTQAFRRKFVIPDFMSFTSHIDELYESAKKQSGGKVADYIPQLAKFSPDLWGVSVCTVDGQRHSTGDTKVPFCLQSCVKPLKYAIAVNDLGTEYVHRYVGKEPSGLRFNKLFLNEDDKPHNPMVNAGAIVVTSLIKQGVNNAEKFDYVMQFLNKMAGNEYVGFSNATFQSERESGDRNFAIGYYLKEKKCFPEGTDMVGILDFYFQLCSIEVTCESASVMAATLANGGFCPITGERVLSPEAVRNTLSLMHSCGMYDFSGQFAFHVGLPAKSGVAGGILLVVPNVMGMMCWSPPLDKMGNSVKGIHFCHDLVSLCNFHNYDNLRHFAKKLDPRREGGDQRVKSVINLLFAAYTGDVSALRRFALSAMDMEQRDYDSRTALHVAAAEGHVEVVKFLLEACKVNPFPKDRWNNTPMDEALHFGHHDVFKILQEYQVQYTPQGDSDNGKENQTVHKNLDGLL
# [2] = target: T1, Glutaminase kidney isoform, mitochondrial
# Description: Inhibition of 6His-tagged GLS1 (63-669 residues) (unknown origin) expressed in Escherichia coli using glutamine as substrate after 15 mins by Glutamate Oxidase/ AmplexRed coupled assay
SMILES,IC50 (NCI-H1703) [nM],IC50 [1] [nM],IC50 [2] [nM]
COc1ccc([C@H](OC)C(=O)Nc2nnc(N[C@@H]3CCN(c4cccnn4)C3)s2)cc1,10.8,–,–
CO[C@H](C(=O)Nc1nnc(N[C@@H]2CCN(c3cncnn3)C2)s1)c1ccccc1,3.24,–,–
COc1cc([C@@H](OC)C(=O)Nc2nnc(N[C@@H]3CCN(c4cncnn4)C3)s2)ccc1F,107,4.99,70.7
